Measurements from the supplement of paper PMC11061612.

Tests used:
Assay in all cases: Bliss excess, mean over the matrix (fraction); higher = more synergy
[1] = test system: NCI-H1793 (Lung Adenocarcinoma)
Summary of the method: (§1)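 Cell lines in DMEM/F12 or RPMI with 10% FBS were plated in 1536-well plates, held 24 hours at 37°C, 5% CO2, then given two-drug dose matrices for 72 hours (DMSO typically 0.2%). Viability was read by CellTiter-Glo 2.0 luminescence and scaled as inhibition from 0 (vehicle wells) to 1 (blank wells). Combination Emax is the second-highest inhibition in the matrix; Bliss excess is observed combination effect minus expected EA + EB − EA·EB, EA and EB being single-agent effects.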

[2] = test system: JiyoyeP-2003 (Burkitt's Lymphoma)
Summary of the method: as §1

[3] = test system: MFH-ino (Other Solid Carcinomas)
Summary of the method: as §1

[4] = test system: HPAC (Pancreatic Carcinoma)
Summary of the method: as §1

[5] = test system: KARPAS-620 (Plasma Cell Myeloma)
Summary of the method: as §1

CAL-78 (Chondrosarcoma) = test system: CAL-78 (Chondrosarcoma)
Summary of the method: as §1

SN12C (Kidney Carcinoma) = test system: SN12C (Kidney Carcinoma)
Summary of the method: as §1

IGR-1 (Melanoma) = test system: IGR-1 (Melanoma)
Summary of the method: as §1

[6] = test system: CFPAC-1 (Pancreatic Carcinoma)
Summary of the method: as §1

[7] = test system: SW780 (Bladder Carcinoma)
Summary of the method: as §1

[8] = test system: MDA-MB-231 (Breast Carcinoma)
Summary of the method: as §1

[9] = test system: KM-H2 (Hodgkin's Lymphoma)
Summary of the method: as §1

[10] = test system: MDA-MB-157 (Breast Carcinoma)
Summary of the method: as §1

[11] = test system: EM-2 (Chronic Myelogenous Leukemia)
Summary of the method: as §1

[12] = test system: KATOIII (Gastric Carcinoma)
Summary of the method: as §1

[13] = test system: G-292-Clone-A141B1 (Osteosarcoma)
Summary of the method: as §1

[14] = test system: 697 (B-Lymphoblastic Leukemia)
Summary of the method: as §1

[15] = test system: C3A (Hepatocellular Carcinoma)
Summary of the method: as §1

[16] = test system: NALM-6 (B-Lymphoblastic Leukemia)
Summary of the method: as §1

[17] = test system: SNU-C5 (Colorectal Carcinoma)
Summary of the method: as §1

SMILES | Bliss excess [1] | Bliss excess [2] | Bliss excess [3] | Bliss excess [4] | Bliss excess [5] | Bliss excess (CAL-78 (Chondrosarcoma)) | Bliss excess (SN12C (Kidney Carcinoma)) | Bliss excess (IGR-1 (Melanoma)) | Bliss excess [6] | Bliss excess [7] | Bliss excess [8] | Bliss excess [9] | Bliss excess [10] | Bliss excess [11] | Bliss excess [12] | Bliss excess [13] | Bliss excess [14] | Bliss excess [15] | Bliss excess [16] | Bliss excess [17]
CC1(C)CCC(CN2CCN(c3ccc(C(=O)NS(=O)(=O)c4ccc(NCC5CCOCC5)c([N+](=O)[O-])c4)c(Oc4cnc5[nH]ccc5c4)c3)CC2)=C(c2ccc(Cl)cc2)C1 [Venetoclax] + Cn1cnc2c(F)c(Nc3ccc(Br)cc3Cl)c(C(=O)NOCCO)cc21 [Selumetinib] (first compound max 1 µM, 7x7, partner max 3 µM) | -0.0096 | 0.0014 | -0.0288 | -0.0515 | 0.16 | -0.0619 | -0.0489 | -0.0405 | -0.0142 | -0.0367 | -0.0277 | -0.0221 | 0.0208 | -0.055 | -0.0235 | -0.0441 | -0.0001 | -0.017 | 0.168 | -0.0248
CN(C)CCCOc1ccc(-c2ccc3ncc4c(c3c2)n(C2CCOCC2)c(=O)n4C)cn1 [AZD0156] + C=CCn1c(=O)c2cnc(Nc3ccc(N4CCN(C)CC4)cc3)nc2n1-c1cccc(C(C)(C)O)n1 [AZD1775] (first compound max 1 µM, partner max 1 µM) | -0.0489 | -0.0012 | -0.0954 | -0.0284 | 0.0135 | -0.0854 | -0.0717 | -0.031 | -0.0645 | -0.0311 | -0.0415 | 0.0303 | -0.0177 | -0.0548 | -0.064 | -0.0538 | 0.0183 | -0.0866 | 0.0093 | -0.0296
Cc1cc2ncnn2cc1Nc1ncc2c(n1)n(C1CCOCC1)c(=O)n2C [AZD7648] + C=CCn1c(=O)c2cnc(Nc3ccc(N4CCN(C)CC4)cc3)nc2n1-c1cccc(C(C)(C)O)n1 [AZD1775] (first compound max 10 µM, partner max 1 µM) | 0.0622 | 0.0246 | 0.0118 | 0.0067 | -0.0493 | -0.0147 | -0.0188 | -0.0255 | 0.0525 | 0.0146 | 0.0218 | -0.0201 | 0.0003 | -0.015 | -0.0052 | -0.0124 | 0 | 0.0187 | -0.041 | 0.0457
COc1cccc(OCCCN)c1-c1cc(Nc2cnc(C#N)cn2)n[nH]1 [Prexasertib] + C=CCn1c(=O)c2cnc(Nc3ccc(N4CCN(C)CC4)cc3)nc2n1-c1cccc(C(C)(C)O)n1 [AZD1775] (first compound max 1 µM, partner max 1 µM) | -0.0045 | 0.0839 | 0.039 | 0.0323 | 0.0927 | -0.0422 | 0.0613 | 0.0284 | -0.0145 | 0.0349 | 0.124 | 0.077 | 0.0628 | 0.0475 | -0.0076 | 0.028 | 0.0316 | 0.0463 | 0.0507 | 0.0153
CCN(CCO)CCCOc1ccc2c(Nc3cc(CC(=O)Nc4cccc(F)c4)[nH]n3)ncnc2c1 [AZD2811] + C=CCn1c(=O)c2cnc(Nc3ccc(N4CCN(C)CC4)cc3)nc2n1-c1cccc(C(C)(C)O)n1 [AZD1775] (first compound max 1 µM, partner max 1 µM) | -0.0064 | 0.0548 | -0.0399 | 0.0048 | -0.0619 | 0.0636 | -0.0698 | -0.0438 | -0.0695 | 0.0194 | 0.009 | 0.0339 | 0.0291 | -0.0184 | -0.0459 | -0.0368 | 0.0164 | -0.0279 | -0.0515 | 0.0188
CC(=O)c1c(C)c2cnc(Nc3ccc(N4CCNCC4)cn3)nc2n(C2CCCC2)c1=O [Palbociclib] + Cn1cnc2c(F)c(Nc3ccc(Br)cc3Cl)c(C(=O)NOCCO)cc21 [Selumetinib] (first compound max 10 µM, 7x7, partner max 10 µM) | -0.012 | 0.0443 | -0.0237 | 0.0461 | 0.166 | -0.0463 | -0.0321 | 0.0661 | -0.0354 | -0.0008 | 0.0613 | 0.0036 | -0.0396 | 0.0533 | 0.0393 | -0.0291 | -0.0685 | -0.0011 | 0.0335 | -0.0615
CN(CCO)CC[C@H](CSc1ccccc1)Nc1ccc(S(=O)(=O)NC(=O)c2ccc(N3CCC([C@@H](O)c4ccccc4-c4ccc(Cl)cc4)CC3)cc2)cc1S(=O)(=O)C(F)(F)F [AZD4320] + Cn1cnc2c(F)c(Nc3ccc(Br)cc3Cl)c(C(=O)NOCCO)cc21 [Selumetinib] (first compound max 1 µM, 7x7, partner max 3 µM) | 0.0496 | 0.0288 | -0.03 | 0.0371 | 0.0613 | -0.0388 | -0.0015 | 0.143 | 0.0453 | 0.0441 | -0.0013 | 0.0106 | 0.0259 | 0.007 | -0.0086 | -0.0021 | 0.0943 | 0.141 | 0.0153 | 0.0837
